Laboratory results reported in the NIST ThermoML archive (doi:10.1016/j.jct.2018.04.004).

Assay: xn = mol fraction of the nth substance listed
Conditions: Liquid, pressure decay method, x1 = 0

## FC(C(F)(F)F)C(F)(F)F [1,1,1,2,3,3,3-heptafluoropropane] + CCCCCC[n+]1ccn(C)c1.O=S(=O)([N-]S(=O)(=O)C(F)(F)F)C(F)(F)F
303.15 K, 99.7 kPa
  binary diffusion coefficient: 2.72e-10 m2/s
313.15 K, 99.6 kPa
  binary diffusion coefficient: 3.5e-10 m2/s
323.15 K, 97.1 kPa
  binary diffusion coefficient: 5.28e-10 m2/s
333.15 K, 105 kPa
  binary diffusion coefficient: 9.6e-10 m2/s
343.15 K, 104.6 kPa
  binary diffusion coefficient: 1.26e-09 m2/s

## FC(F)(F)CC(F)(F)F [1,1,1,3,3,3-hexafluoropropane] + CCCCCC[n+]1ccn(C)c1.O=S(=O)([N-]S(=O)(=O)C(F)(F)F)C(F)(F)F
303.15 K, 86 kPa
  binary diffusion coefficient: 1.55e-10 m2/s
313.15 K, 85.5 kPa
  binary diffusion coefficient: 2.4e-10 m2/s
323.15 K, 95.7 kPa
  binary diffusion coefficient: 4.09e-10 m2/s
333.15 K, 90.1 kPa
  binary diffusion coefficient: 5.96e-10 m2/s
343.15 K, 90.7 kPa
  binary diffusion coefficient: 8.42e-10 m2/s

## FC(F)CC(F)(F)F [1,1,1,3,3-pentafluoropropane] + CCCCCC[n+]1ccn(C)c1.O=S(=O)([N-]S(=O)(=O)C(F)(F)F)C(F)(F)F
303.15 K, 50.4 kPa
  binary diffusion coefficient: 8.4e-11 m2/s
313.15 K, 63.9 kPa
  binary diffusion coefficient: 1.22e-10 m2/s
323.15 K, 69.8 kPa
  binary diffusion coefficient: 2.06e-10 m2/s
333.15 K, 74.9 kPa
  binary diffusion coefficient: 2.75e-10 m2/s
343.15 K, 84.6 kPa
  binary diffusion coefficient: 3.47e-10 m2/s
